From patent US12378211B2, “Carbonic anhydrase inhibitors and antibiotics against multidrug resistant bacteria” (Purdue Research Foundation, priority 2018, dated 2025)
Values after ≈ are worked out from the molar mass of the structure shown.

How the values were obtained:
Assay in all cases: MIC, broth microdilution in TSB
Format in all cases: cell-based
[1] = system: Enterococcus fecalis Strain SF 28073-NR31972; settings: TSB, Table 7; for MIC: Enterococcus, read-out: MIC in TSB
Protocol: (§1) The minimum inhibitory concentrations (MICs) of the compounds and control drugs were determined using the broth microdilution method, according to guidelines outlined by the Clinical and Laboratory Standards Institute (CLSI). Enterococci strains were grown aerobically overnight on tryptone soya agar plates at 37° C., afterwards a bacterial solution equivalent to 0.5 McFarland standard was prepared and diluted in tryptone soy broth (TSB) to achieve a bacterial concentration of about 5×10^5 CFU/mL and seeded in 96-well well plates. Compounds and control drugs were added in the first row of the 96-well plates and serially diluted along the plates. Plates were then incubated aerobically at 37° C. for 18-20 hours. MICs reported in Table 1 are the minimum concentration of the compounds/control drugs that could inhibit completely the visual growth of the bacteria.

[2] = system: Enterococcus faecium Patient #3-1 NR-31912; settings: TSB, Table 7; for MIC: Enterococcus faecium, read-out: MIC in TSB
Protocol: as §1

[3] = system: Enterococcus faecium Patient #2-1-NR-31909; settings: TSB, Table 7; for MIC: Enterococcus faecium, read-out: MIC in TSB
Protocol: as §1

[4] = system: Enterococcus faecium E417-HM-965; settings: TSB, Table 7; for MIC: Enterococcus faecium, E417HM965, read-out: MIC in TSB
Protocol: as §1

[5] = system: Enterococcus fecalis Strain SF 24397 NR31970; settings: TSB, Table 7; for MIC: Enterococcus, read-out: MIC in TSB
Protocol: as §1

[6] = system: Enterococcus faecalis—S613 HM-334; settings: TSB, Table 7; for MIC: Enterococcus, read-out: MIC in TSB
Protocol: as §1

[7] = system: Enterococcus fecalis Strain MMH594-NR31975; settings: TSB, Table 7; for MIC: Enterococcus, read-out: MIC in TSB
Protocol: as §1

[8] = system: Enterococcus fecalis Strain SF24413 NR31971; settings: TSB, Table 7; for MIC: Enterococcus, read-out: MIC in TSB
Protocol: as §1

Compound | MIC [1] [mg/L] | MIC [2] [mg/L] | MIC [3] [mg/L] | MIC [4] [mg/L] | MIC [5] [mg/L] | MIC [6] [mg/L] | MIC [7] [mg/L] | MIC [8] [mg/L] | MIC in TSB [1] [mg/L] | MIC in TSB [5] [mg/L] | MIC in TSB [6] [mg/L] | MIC in TSB [7] [mg/L] | MIC in TSB [2] [mg/L] | MIC in TSB [3] [mg/L] | MIC in TSB [8] [mg/L] | MIC in TSB [4] [mg/L]
NS(=O)(=O)c1nnc(NCc2ccc(Br)cc2)s1 [CAI0003, 5-((4-bromobenzyl)amino)-1,3,4-thiadiazole-2-sulfonamide] | > 64 | > 64 | > 64 | > 64 | – | – | – | – | – | – | – | – | – | – | – | –
NS(=O)(=O)c1nnc(NC(=O)CC2CCCCC2)s1 [CAI0029, 2-Cyclohexyl-N-(5-sulfamoyl-1,3,4-thiadiazol-2-yl)acetamide] | 0.015 (≈ 0.0493 µM) | 0.03 (≈ 0.0986 µM) | 0.001 (≈ 0.00329 µM) | 0.06 (≈ 0.197 µM) | 0.007 (≈ 0.023 µM) | 0.015 (≈ 0.0493 µM) | 0.015 (≈ 0.0493 µM) | 0.03 (≈ 0.0986 µM) | – | – | – | – | – | – | – | –
NS(=O)(=O)c1nnc(NCc2ccc(Cl)cc2)s1 [CAI0001, 5-((4-chlorobenzyl)amino)-1,3,4-thiadiazole-2-sulfonamide] | > 64 | > 64 | 8 (≈ 26.2 µM) | > 64 | – | – | – | – | – | – | – | – | – | – | – | –
CC(C)(C)CC(=O)Nc1nnc(S(N)(=O)=O)s1 [CAI0028, 3,3-Dimethyl-N-(5-sulfamoyl-1,3,4-thiadiazol-2-yl)butanamide] | 0.03 (≈ 0.108 µM) | 0.003 (≈ 0.0108 µM) | 0.003 (≈ 0.0108 µM) | 0.015 (≈ 0.0539 µM) | 0.015 (≈ 0.0539 µM) | 0.03 (≈ 0.108 µM) | 0.03 (≈ 0.108 µM) | 0.03 (≈ 0.108 µM) | – | – | – | – | – | – | – | –
CCCCCCC(=O)Nc1nnc(S(N)(=O)=O)s1 [CAI0027, N-(5-Sulfamoyl-1,3,4-thiadiazol-2-yl)heptanamide] | 0.015 (≈ 0.0513 µM) | 0.007 (≈ 0.0239 µM) | 0.001 (≈ 0.00342 µM) | 0.015 (≈ 0.0513 µM) | 0.007 (≈ 0.0239 µM) | 0.007 (≈ 0.0239 µM) | 0.015 (≈ 0.0513 µM) | 0.015 (≈ 0.0513 µM) | – | – | – | – | – | – | – | –
CC(=O)Nc1nnc(S(C)(=O)=O)s1 [CAI0025, N-(5-(Methylsulfonyl)-1,3,4-thiadiazol-2-yl)acetamide] | > 128 | > 128 | > 128 | > 128 | > 128 | > 128 | > 128 | > 128 | – | – | – | – | – | – | – | –
3-cyclohexyl-N-(5-sulfamoyl-1,3,4-thiadiazol-2-yl) propenamide [CAI0019] | – | – | – | – | – | – | – | – | 0.015 | 0.015 | 0.007 | 0.015 | 0.007 | 0.003 | 0.015 | 0.007
NS(=O)(=O)c1nnc(NC(=O)C2CCC2)s1 [CAI0018, N-(5-Sulfamoyl-1,3,4-thiadiazol-2-yl)cyclobutanecarboxamide] | 1 (≈ 3.81 µM) | 0.5 (≈ 1.91 µM) | 0.25 (≈ 0.953 µM) | 0.5 (≈ 1.91 µM) | 1 (≈ 3.81 µM) | 1 (≈ 3.81 µM) | 0.5 (≈ 1.91 µM) | 1 (≈ 3.81 µM) | – | – | – | – | – | – | – | –
NS(=O)(=O)c1nnc(NCc2cccc(C(F)(F)F)c2)s1 [CAI0007, 5-((3-(trifluoromethyl)benzyl)amino)-1,3,4-thiadiazole-2-sulfonamide] | 4 (≈ 11.8 µM) | 8 (≈ 23.6 µM) | 8 (≈ 23.6 µM) | 8 (≈ 23.6 µM) | – | – | – | – | – | – | – | – | – | – | – | –
NS(=O)(=O)c1nnc(NC(=O)C2CCCCC2)s1 [CAI0022, N-(5-Sulfamoyl-1,3,4-thiadiazol-2-yl)cyclohexanecarboxamide] | 0.25 (≈ 0.861 µM) | 0.125 (≈ 0.43 µM) | 0.015 (≈ 0.0517 µM) | 0.25 (≈ 0.861 µM) | 0.25 (≈ 0.861 µM) | 0.25 (≈ 0.861 µM) | 0.25 (≈ 0.861 µM) | 0.5 (≈ 1.72 µM) | – | – | – | – | – | – | – | –
